Where two headings read alike, the source gives them in different places.
Legend:
[1] = target: T1, PLL (Photorhabdus laumondii subsp. laumondii, UniProt Q7N8J0); experiment: SPR inhibition assay on the MGMR channel; set-up: species or system Photorhabdus laumondii subsp. laumondii TT01; conditions: inhibition of PLL (250 nM) binding to immobilized MGMR
Method: (§1) SPR experiments were carried out on BIAcore T200 or BIAcore S200 instruments (GE Healthcare, UK). Sugar moieties were immobilized on the chip surface using the standard procedures according to the manufacturer’s instructions. Measurements with immobilized MGMR were performed on the chip prepared previously (high-density chip) ([Fujdiarová et al. 2021]). Measurements with immobilized α-L-fucose were performed on the streptavidin chip (GE Healthcare, UK). Biotinylated α-L-fucose was immobilized on channel 2 to yield a final response of 29 RU, unmodified channel 1 was used as a control.
(§2) Measurements were performed in Tris buffer with the addition of 0.05% Tween 20 at a flow rate of 30 μl/min at 25 °C. […] 50 mM NaOH for 30 s (flow 30 μl/min) was used for chip regeneration. To determine KDs (app) towards MGMR, 2-fold dilution series of lectins was used (PLL: 0.048 – 50 μM, PLL4: 0.008 - 2 μM; PLL5: 1.9 – 500 nM). The data were evaluated with the BIAcore T200 or BIAcore S200 evaluation software using a steady state approach. To determine KD(app) towards α-L-fucose, 2-fold dilution series of lectins was used (PLL: 1.25 – 20 μM, PLL4: 0.39 – 12.5 μM; PLL5: 0.12 – 30 μM). The data were evaluated with the BIAcore T200 or BIAcore S200 evaluation software using a steady state approach (PLL5) or a single-cycle kinetics approach (PLL, PLL4). For SPR inhibition experiments on the MGMR channel, 250 nM PLL, 250 nM PLL4 or 62 nM PLL5, respectively, was used. Proteins of the given concentration were mixed with a concentration series of tested inhibitors (0.01 - 0.4 M). Proteins without an inhibitor were used as a control. The response of the lectin bound to the sugar surface at equilibrium was plotted against the concentration of inhibitor in order to determine IC50. The response in the appropriate blank channel was subtracted prior to all evaluations.

[2] = target: T2, PLL4 (Photorhabdus laumondii subsp. laumondii, UniProt Q7N8I6); experiment: SPR inhibition assay on the MGMR channel; set-up: species or system Photorhabdus laumondii subsp. laumondii TT01; conditions: inhibition of PLL4 (250 nM) binding to immobilized MGMR
Method: as §1, §2

[3] = target: T3, PLL5 (Photorhabdus laumondii subsp. laumondii, UniProt Q7N8I5); experiment: SPR inhibition assay on the MGMR channel; set-up: species or system Photorhabdus laumondii subsp. laumondii TT01; conditions: inhibition of PLL5 (62 nM) binding to immobilized MGMR
Method: as §1, §2

[4] = target: T1, PLL; experiment: Isothermal titration calorimetry (ITC); assay type: binding, Photorhabdus laumondii subsp. laumondii TT01
Method: (§3) ITC experiments were performed using an Auto-ITC200 calorimeter or Automated PEAQ-ITC calorimeter (both Malvern Panalytical, Malvern, UK). Measurements were carried out at 25 °C in the Tris buffer. Before the analyses, lectins were extensively dialyzed against the Tris buffer and the dialysate was used to dissolve ligands. The protein (0.1 mM or 0.2 mM) in the cell was titrated with 2 μL injections of the ligand (20 mM or 40 mM). […] Experiments for each interacting ligand were carried out in triplicates. Integrated heat effects were evaluated by nonlinear regression using a single-site binding model in Origin 7 (OriginLab, Northampton, USA) ([Wiseman et al. 1989]). Triplicate measurements were fitted simultaneously using a global fit approach. Due to the low affinity of the interaction, the binding stoichiometry was fixed during the fitting.

[5] = target: T2, PLL4; experiment: Isothermal titration calorimetry (ITC); assay type: binding, Photorhabdus laumondii subsp. laumondii TT01; conditions: for Kd / KD: ITC; for interaction with the sugar in ITC (in words): PLL4
Method: as §3

[6] = target: T3, PLL5; experiment: Isothermal titration calorimetry (ITC); assay type: binding, Photorhabdus laumondii subsp. laumondii TT01; conditions: for Kd / KD: ITC; for interaction with the sugar in ITC (in words): PLL5
Method: as §3

[7] = test system: PLL2; set-up: method as in Faltinek et al. 2019; Fujdiarová et al. 2021; conditions: inhibition of PLL2 binding to immobilized MGMR, ref Faltinek et al. 2019, Fujdiarová et al. 2021, cited from earlier work
[8] = test system: PLL3; set-up: method as in Faltinek et al. 2019; Fujdiarová et al. 2021; conditions: inhibition of PLL3 binding to immobilized MGMR, ref Faltinek et al. 2019, Fujdiarová et al. 2021, cited from earlier work
[9] = target: PLL2; set-up: method as in Fujdiarová et al, 2021, Faltinek et al, 2019; conditions: ref Fujdiarová et al, 2021, Faltinek et al, 2019, cited from earlier work; for Kd: ITC; for interaction with the sugar in ITC (in words): PLL2
[10] = target: PLL3; set-up: method as in Fujdiarová et al, 2021, Faltinek et al, 2019; conditions: ref Fujdiarová et al, 2021, Faltinek et al, 2019, cited from earlier work; for Kd: ITC; for interaction with the sugar in ITC (in words): PLL3
[11] = target: T2, PLL4; experiment: Glycan microarray screening (634 saccharide ligands); assay type: binding, Photorhabdus laumondii subsp. laumondii TT01; conditions: DyLight488-labelled PLL4, 200 μg/mL
Method: Lectins were fluorescently labelled with DyLight 488 according to the manufacturer’s instructions and the unbound dye was extensively dialyzed out of the protein solution. The microarray chip (Semiotik LLC, Moscow, Russia, batch OSPS280715) containing 634 saccharide ligands, each in 6 replicates, was treated with PBS (137 mM NaCl, 2.7 mM KCl, 8 mM Na2HPO4, […], pH 7.4) with added 0.1% Tween-20 for 15 min. The labelled proteins (200 μg/mL) were then separately applied to the chip surface and incubated in a humidity chamber at 37 °C for 1 h. After the incubation, the unbound protein was washed out with PBS containing 0.05% Tween-20 and deionized water. The chip was dried by airflow and scanned using an InnoScan1100 AL (Innopsys, Carbonne, France) with a 488 nm laser. The data were analyzed with the software Mapix 8.2.2 and an online glycan chip converter (Semiotic, https://rakitko.shinyapps.io/semiotik).

[12] = ITC, stoichiometry N fixed to 2
[13] = PLL4, stoichiometry N fixed to 4
[14] = PLL5, stoichiometry N fixed to 4
[15] = PLL2, stoichiometry N fixed to 4
[16] = PLL3, stoichiometry N fixed to 4
[17] = ITC, stoichiometry N fixed to 4
[18] = ITC, stoichiometry N fixed to 6
[19] = ITC, stoichiometry N fixed to 8
[20] = PLL4, stoichiometry N fixed to 2
[21] = PLL4, stoichiometry N fixed to 6
[22] = PLL4, stoichiometry N fixed to 8
[23] = PLL5, stoichiometry N fixed to 2
[24] = PLL5, stoichiometry N fixed to 6
[25] = PLL5, stoichiometry N fixed to 8
[26] = PLL2, stoichiometry N fixed to 2
[27] = PLL2, stoichiometry N fixed to 6
[28] = PLL2, stoichiometry N fixed to 8
[29] = PLL3, stoichiometry N fixed to 2
[30] = PLL3, stoichiometry N fixed to 6
[31] = PLL3, stoichiometry N fixed to 8

T3 sequence (Q7N8I5 entry or part of it): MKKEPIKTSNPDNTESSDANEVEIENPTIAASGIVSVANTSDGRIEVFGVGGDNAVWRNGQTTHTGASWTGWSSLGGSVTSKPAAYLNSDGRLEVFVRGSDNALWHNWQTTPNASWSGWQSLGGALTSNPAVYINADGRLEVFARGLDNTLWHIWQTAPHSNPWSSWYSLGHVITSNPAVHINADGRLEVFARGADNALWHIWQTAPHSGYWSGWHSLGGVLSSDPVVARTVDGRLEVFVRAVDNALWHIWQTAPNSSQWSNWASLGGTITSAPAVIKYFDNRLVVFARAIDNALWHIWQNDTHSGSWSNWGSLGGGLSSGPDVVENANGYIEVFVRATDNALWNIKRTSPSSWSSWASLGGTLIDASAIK
T2 sequence (Q7N8I6 entry or part of it): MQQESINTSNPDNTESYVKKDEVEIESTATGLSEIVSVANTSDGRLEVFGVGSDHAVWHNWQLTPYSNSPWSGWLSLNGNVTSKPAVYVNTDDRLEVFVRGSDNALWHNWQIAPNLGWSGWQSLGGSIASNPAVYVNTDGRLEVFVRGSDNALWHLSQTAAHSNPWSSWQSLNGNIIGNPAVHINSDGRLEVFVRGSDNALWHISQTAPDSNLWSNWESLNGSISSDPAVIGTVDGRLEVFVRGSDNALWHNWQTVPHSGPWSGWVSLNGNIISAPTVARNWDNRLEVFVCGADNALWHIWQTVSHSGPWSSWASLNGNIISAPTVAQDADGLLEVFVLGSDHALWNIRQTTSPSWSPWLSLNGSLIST
T1 sequence (Q7N8J0 entry or part of it): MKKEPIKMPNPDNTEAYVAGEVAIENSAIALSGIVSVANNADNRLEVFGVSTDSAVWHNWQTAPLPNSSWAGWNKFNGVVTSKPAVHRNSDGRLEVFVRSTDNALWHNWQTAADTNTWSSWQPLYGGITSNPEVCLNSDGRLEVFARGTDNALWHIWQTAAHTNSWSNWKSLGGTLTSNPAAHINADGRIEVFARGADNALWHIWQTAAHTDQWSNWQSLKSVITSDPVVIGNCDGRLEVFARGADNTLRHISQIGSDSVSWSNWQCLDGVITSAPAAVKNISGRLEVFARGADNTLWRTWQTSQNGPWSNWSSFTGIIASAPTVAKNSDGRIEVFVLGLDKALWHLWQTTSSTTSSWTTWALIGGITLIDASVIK

SMILES	IC50 [1] [mM]	IC50 [2] [mM]	IC50 [3] [mM]	IC50 ([7]; read-out: IC50) [mM]	IC50 ([8]; read-out: IC50) [mM]	Kd [9, 15] [mM]	Kd [10, 16] [mM]	KD [4, 12]	KD [4, 17]	KD [4, 18]	KD [4, 19]	Kd [9, 28] [mM]	Kd [10, 29] [mM]	Kd [10, 30] [mM]	Kd [10, 31] [mM]	interaction with the sugar in ITC (in words) [4]	KD [5, 20]	KD [5, 13]	KD [5, 21]	KD [5, 22]	further results
CO[C@@H]1O[C@@H](C)[C@@H](O)[C@@H](O)[C@@H]1O [αMeFuc, methyl-α-L-fucoside]	4 ± 1.35	1.4 ± 0.04	1.7 ± 0.13	0.1 ± 0.01	1 ± 0.05	0.4 ± 0.02	0.7 ± 0.03														Kd [4, 12]: 3.6 ± 0.07 mM; Kd [5, 13]: 4.9 ± 0.08 mM; Kd [6, 14]: 4.2 ± 0.17 mM
CC(=O)N[C@@H]1[C@@H](O)[C@H](O[C@@H]2O[C@H](CO)[C@H](O)[C@H](O)[C@H]2O[C@@H]2O[C@H](C)[C@H](O)[C@H](O)[C@H]2O)[C@@H](CO)O[C@H]1O [D-Fucβ1-2-D-Galβ1-4-D-GlcNAcβ]																					glycan array binding (in words) [11]: recognized
C[C@H](O)[C@@H](O)[C@@H](O)[C@H](O)C=O [L-Fuc, L-fucose]	19.5 ± 7.5	5.7 ± 0.21	3.6 ± 0.13	1.2 ± 0.04	2.5 ± 0.09	2.6 ± 0.08	3.3 ± 0.12	No int	No int	No int	No int	2.1 ± 0.1	3.6 ± 0.14	3.1 ± 0.1	2.9 ± 0.1						Kd [5, 20]: 31.2 ± 0.95 mM; Kd [5, 13]: 29.9 ± 0.9 mM; Kd [5, 21]: 28.6 ± 0.89 mM; Kd [5, 22]: 27.2 ± 0.86 mM; Kd [6, 23]: 16.6 ± 1.02 mM; Kd [6, 14]: 16 ± 1.01 mM; Kd [6, 24]: 15.4 ± 1 mM; Kd [6, 25]: 14.7 ± 0.99 mM; Kd [9, 26]: 2.8 ± 0.07 mM; Kd [9, 27]: 2.4 ± 0.08 mM
CO[C@@H]([C@H](O)[C@H](O)CO)[C@@H](O)C=O [3OMG, 3-O-methyl-D-glucose]	48.1 ± 14.9	13.1 ± 0.84	16.9 ± 2.69	5.2 ± 0.91	26.4 ± 2.84		11.1 ± 1.5	No int	No int	No int	No int	11.2 ± 0.8	11.5 ± 1.55	10.7 ± 1.5	10.2 ± 0.62	did not bind these sugars significantly	No int	No int	No int	No int	interaction with the sugar in ITC (in words) [5]: did not bind these sugars significantly; KD [6, 23]: No int; KD [6, 14]: No int; KD [6, 24]: No int; KD [6, 25]: No int; interaction with the sugar in ITC (in words) [6]: did not bind these sugars significantly; interaction with the sugar in ITC (in words) [9]: interacted; interaction with the sugar in ITC (in words) [10]: interacted
OC[C@H]1O[C@@H](O[C@H]2[C@H](O)[C@@H](O)C(O)O[C@@H]2CO)[C@H](O)[C@@H](O)[C@H]1O (mixture of isomers) [lactose]																					glycan array binding (in words) [11]: recognized
OC[C@H]1OC(O)[C@H](O)[C@@H](O)[C@@H]1O (stereo partly drawn) [D-Glc]						3.6 ± 0.21	3.6 ± 0.08	No int	No int	No int	No int		4 ± 0.12	3.3 ± 0.07	3.1 ± 0.11	did not bind these sugars significantly	No int	No int	No int	No int	interaction with the sugar in ITC (in words) [5]: did not bind these sugars significantly; KD [6, 23]: No int; KD [6, 14]: No int; KD [6, 24]: No int; KD [6, 25]: No int; interaction with the sugar in ITC (in words) [6]: did not bind these sugars significantly; interaction with the sugar in ITC (in words) [9]: interacted; interaction with the sugar in ITC (in words) [10]: interacted
O=C[C@H](O)[C@@H](O)[C@@H](O)[C@H](O)CO [D-Gal, D-galactose]				> 100		0.4 ± 0.03	2.7 ± 0.14	No int	No int	No int	No int	0.3 ± 0.06	3 ± 0.06	2.5 ± 0.13	2.2 ± 0.06	did not bind these sugars significantly	No int	No int	No int	No int	interaction with the sugar in ITC (in words) [5]: did not bind these sugars significantly; KD [6, 23]: No int; KD [6, 14]: No int; KD [6, 24]: No int; KD [6, 25]: No int; interaction with the sugar in ITC (in words) [6]: did not bind these sugars significantly; IC50 [7]: not PLL2; IC50 [8]: inhibited only the binding of PLL3; Kd [9, 26]: 0.5 ± 0.02 mM; Kd [9, 27]: 0.3 ± 0.04 mM; interaction with the sugar in ITC (in words) [9]: interacted; interaction with the sugar in ITC (in words) [10]: interacted
